Experiment [1] deals with SH-SY5Y. Kind of experiment: Neuroprotective activity against SNCA-induced neurotoxicity in human SH-SY5Y cells transfected with adenovirus expressing […] SNCA assessed as inhibition of mTOR activation at 100 nM measured after 6 hrs by western blot analysis. In kind it is functional, cell-based. A general note: Immunoblotting shows a protein as a band on a membrane.
In experiment [2] the test system is SH-SY5Y. Kind of experiment: Neuroprotective activity against A53T SNCA-induced cytotoxicity in human SH-SY5Y cells assessed as decrease in A53T SNCA induced LDH release at 100 nM by LDH assay. The experiment is classed as functional, cell-based. A general note: LDH leaks from cells whose membrane has failed.
Experiment [3] deals with SH-SY5Y. The experiment in a line: Neuroprotective activity against SNCA-induced neurotoxicity in human SH-SY5Y cells transfected with adenovirus expressing […] SNCA assessed as inhibition of p62 expression at 100 nM measured after 6 hrs by western blot analysis. The experiment is classed as functional, cell-based.
Experiment [4] concerns N2a. Kind of experiment: Effect on SNCA oligomerization in mouse N2a cells transfected with Syn-luc1 and Syn-luc2 plasmids assessed as reduction in SNCA self-oligomerization by measuring luciferase activity at 100 nM measured after 6 hrs by bioluminescent protein-fragment complementation assay. The experiment is classed as functional, cell-based.
For experiment [5], the system named is N2a. Kind of experiment: Induction of autophagy in MPP+-induced mouse N2a cells assessed as increase in LC3-II expression at 10 uM measured after 6 hrs by western blot analysis. In kind it is functional, cell-based.
In experiment [6] the target is T1, Vitamin D3 receptor (Homo sapiens) (UniProt P11473).
T1 sequence (whole entry): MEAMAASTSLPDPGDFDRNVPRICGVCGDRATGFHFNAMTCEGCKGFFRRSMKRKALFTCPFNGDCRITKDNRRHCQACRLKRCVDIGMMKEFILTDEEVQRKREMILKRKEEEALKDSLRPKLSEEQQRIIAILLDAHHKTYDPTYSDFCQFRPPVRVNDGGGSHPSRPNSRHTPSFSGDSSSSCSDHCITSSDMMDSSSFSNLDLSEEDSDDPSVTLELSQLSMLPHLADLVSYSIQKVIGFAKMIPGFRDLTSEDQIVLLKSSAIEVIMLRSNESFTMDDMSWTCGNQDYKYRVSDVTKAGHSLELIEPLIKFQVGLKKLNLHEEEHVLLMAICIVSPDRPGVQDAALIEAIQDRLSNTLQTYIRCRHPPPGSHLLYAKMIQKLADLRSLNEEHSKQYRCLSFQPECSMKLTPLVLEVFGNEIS
The experiment in a line: Antagonist activity at VDR in human HeLa cells assessed as decrease in p62 expression at 100 nM in presence or absence of calcitriol measured after 4 hrs by western blot analysis. The experiment is classed as cell-based. Conditions: filed as antagonist.

The target of experiment [7] is T1, Vitamin D3 receptor (Homo sapiens). The experiment in a line: Antagonist activity at VDR in human HeLa cells assessed as increase in ratio of LC3-II to LC-I at 100 nM in presence or absence of calcitriol measured after 4 hrs by western blot analysis. In kind it is cell-based.
Experiment [8] has as its system N2a. Kind of experiment: Induction of autophagy in MPP+-induced mouse N2a cells infected with pAde-LC3-EGFP- mCherry assessed as formation of mCherry foci by measuring increased in red fluorescence at 500 nM measured after 4 hrs by Hoechst staining based confocal microscope analysis. In kind it is functional, cell-based.
For experiment [9], the target named is T1, Vitamin D3 receptor (Homo sapiens). Kind of experiment: Antagonist activity at VDR in human HeLa cells assessed as decrease in mTOR phosphorylation at Ser2448 residue at 100 nM in presence or absence of calcitriol measured after 4 hrs by western blot analysis. The experiment is classed as cell-based.
Experiment [10] concerns SH-SY5Y. Kind of experiment: Neuroprotective activity against SNCA-induced neurotoxicity in human SH-SY5Y cells transfected with adenovirus expressing […] SNCA assessed as reduction in […] SNCA expression at 100 nM measured after 6 hrs by western blot analysis. The experiment is classed as functional, cell-based.

Molecules are shown by their SMILES. Calls of active or inactive are those of the source. No cut-off for these calls is given here.

Take `CCC(=O)N1CCN(c2ccc(-n3c(=O)ccc4cnc5ccc(-c6cnc7ccccc7c6)cc5c43)cc2C(F)(F)F)CC1`: the inhibition entry in the experiment with SH-SY5Y [1] and with SH-SY5Y [3] was “Active” in each case. In addition, the outcome (in the experiment with SH-SY5Y [2]; with N2a [4]; in the experiment with N2a [5]; in [6]; in the experiment on N2a [8]; in the experiment on SH-SY5Y [10]) was Active. Moreover, the outcome in experiment [7] and in experiment [9] was inactive.

Source of the values: ChEMBL document CHEMBL5053541, “Andrographolide derivative as antagonist of vitamin D receptor to induce lipidation of microtubule associate protein 1 light chain 3 (LC3)” (Bioorg Med Chem, 2021).
